In US11344534B2, “Cholinergic agonism for the treatment of pancreatic cancer” (priority 2017, dated 2022):
Entries after “also recorded” stand apart in the source; their conditions may differ.

Assays:
[1] = test system: Kras^+/LSL-G12D mutant spheres; test: 3D Matrigel sphere culture of Kras mutant (Ad-Cre) pancreatic acinar cells; type: cell-based, mouse
Experimental: Cholinergic stimulation could in theory promote cancer indirectly through effects on stromal cells, or directly through effects on pancreatic epithelial cells. To determine whether cholinergic stimulation promoted tumor development in part through muscarinic receptors on cancer cells, the sphere forming capacity of K-Ras^+/LSL-G12D mutant pancreatic acinar cells was assessed in a 3D Matrigel culture system, with or without muscarinic stimulation. K-Ras^+/LSL-G12D mutant spheres were generated from K-Ras^+/LSL-G12D pancreatic acinar cells by treatment with adenoviral delivered Cre (Ad-Cre).
3D cultures were performed as described previously (Wescott et al., 2009). Organoids were cultured for 5 days before analysis. Adenoviral delivered Cre (Ad-Cre) was added to the cultures and medium was changed after 12 hours. […] Sphere size and […] were analyzed using ImageJ software.
To determine whether cholinergic stimulation suppresses tumor development in part through specific muscarinic receptors on cancer cells, the sphere forming capacity of Kras^+/LSL-G12D pancreatic acinar cells in a 3D Matrigel culture system in the absence and presence of muscarinic agonists and antagonists was assessed. Kras^+/LSL-G12D mutant spheres were generated from Kras^+/LSL-G12D mice by delivery of an adenoviral Cre (Ad-Cre).
3D cultures were performed as described previously^18. Organoids were cultured for 5 days before analysis. Adenoviral delivered Cre (Ad-Cre) was added to the cultures and medium was changed after 12 hours. […] Sphere size and number were analyzed using ImageJ software.

[2] = test system: CD44+CD24+EpCAM+ population of Panc1 and BxPC3 cells; test: Flow cytometry (FACS) of cancer stem cell population; type: cell-based, human; settings: for CD44+CD24+EpCAM+ cancer stem cell population (FACS): human pancreatic cancer cells, 72 hours pilocarpine
Experimental: Panc-1 cells were grown in 6-well plate to around ˜70% confluent, changed the 0.5% FBS medium, added the drugs respectively and incubated them for further 72 hrs incubation in a typical CO2 incubator (˜20% O2). Afterwards, cells were kept on ice in blocking solution (PBS pH 7.2 containing ? 3% bovine serum albumin, 2 mM EDTA) for 20 minutes. Cells were then stained with a PE-conjugated antibody against CD24, a FITC-conjugated antibody against CD44, and an APC-conjugated antibody against CD326 (1:100—in blocking solution) on ice for 30 minutes. The cells were then washed, reconstituted in sorting buffer (PBS pH 7.2 containing 0.5% bovine serum albumin, 2 mM EDTA)+DAPI and analyzed using a BD FACSAria II.
Panc1 and BxPC3 cells were grown in 6-well plate to ˜70% confluency, the media was changed to 0.5% FBS medium, the respective drugs were added, and they were incubated for an additional 72 hrs in a typical CO2 incubator (˜5% CO2). Subsequently, cells were kept on ice in blocking solution (PBS pH 7.2 containing 3% bovine serum albumin, 2 mM EDTA) for 20 minutes. Cells were then stained with a PE-conjugated antibody against CD24, a FITC-conjugated antibody against CD44, and an APC-conjugated antibody against CD326 (1:100 in blocking solution) on ice for 30 minutes. The cells were then washed, reconstituted in sorting buffer (PBS pH 7.2 containing 0.5% bovine serum albumin, 2 mM EDTA)+DAPI and analyzed using a BD FACSAria II.

[3] = test system: primary human PDA organoids; test: Primary human PDA organoids treated with pilocarpine; type: cell-based; settings: dose-dependent, 100DM pilocarpine in FIG. 21B
Description: To better understand the effect of growth inhibition by muscarinic agonists in human pancreatic epithelial cells, we generated primary human PDA organoids. Treatment with the broad muscarinic agonist, pilocarpine, reduced the number of viable organoids in a dose-dependent manner (FIGS. 21A-B). Treatment of human pancreatic cancer cells (Panc1) with pilocarpine reduced the size of the CD44+CD24+EpCAM+putative cancer stem cell population in a dose dependent manner (FIG. 21C) and inhibited tumor initiation in NOD/SCID mice (FIG. 21D). To better understand growth inhibition by muscarinic agonists, we analyzed changes in signaling molecules in animal models and PDA cell lines. […] Surprising, a number of signaling molecules were suppressed by both nonspecific and M1R-specific muscarinic agonists, including EGFR, B-RAF, ERK1/2, PI3K, and AKT kinase. These kinases all show reduced phosphorylation by muscarinic agonists, which was abrogated by treatment with muscarinic antagonists. Finally, we analyzed Panc-1 cells following pilocarpine treatment (1 mM, 72 hrs) using RNAseq, and noted that many of the genes suppressed by pilocarpine included EGFR and PI3K^17.

[4] = test system: Kras mutant Panc1 cells; test: Ca2+ flux in pancreatic cancer cells; type: cell-based, human; settings: preliminary studies
[5] = day 5, pilocarpine 1 mM, scopolamine 10 μM, McN-34A 50 μM, pirenzepine 50 μM, vs controls

Structure (SMILES): CC[C@@H]1C(=O)OC[C@@H]1Cc1cncn1C [pilocarpine, (3S,4R)-3-ethyl-4-[(3-methylimidazol-4-yl)methyl]oxolan-2-one]
- number of spheres [1, 5]: significantly fewer; also recorded: reduced
- size of spheres [1, 5]: smaller
- sphere formation and growth of Kras mutant spheres ([1]; oncogenic K-Ras allele activated by adeno-Cre virus): significant inhibitory effect; also recorded: decrease; also recorded: suppresses
- CD44+CD24+EpCAM+ cancer stem cell population (FACS) [2]: marked suppression; also recorded: reduced; also recorded: Dose dependent decrease
- CD44+CD24+EpCAM+ cancer stem cell population (FACS) ([2]; listed as Pilocarpine): remarkable suppression
- suppression of CD44+CD24+EpCAM+ cancer stem cells ([2]; pilocarpine at doses of 100-500 rμM, preliminary studies): > 50%
- number of viable organoids [3]: reduced
- Ca2+ flux [4]: unable to stimulate
